“Also recorded” adds a separate entry of the source.
Columns and labels:
[1] = tested on: human PSCs; test: FACS analyses of hematopoietic differentiation of human PSCs (embryoid bodies); assay type: cell-based
Description: Embryoid body and hemogenic endothelium differentiation was performed as described in (Sugimura et al. 2017; Ditadi et al. 2015). Briefly, hiPSC colonies were dissociated with 0.05% trypsin for 5 min at 37° C., washed with PBS+2% FBS, and resuspended in StemPro-34 (Invitrogen, 10639-011) supplemented with L-glutamine (2 mM), penicillin/streptomycin ([…]), ascorbic acid (1 mM), human holo-Transferrin ([…], Sigma T0665), monothioglycerol (MTG, 0.4 mM), BMP4 (10 ng/ml), and Y-27632 (10 μM). Five million cells were seeded into 10 cm dishes (Ezsphere, Asahi Glass) for the spheroid formation. On Day 1, bFGF (5 ng/ml) and BMP4 (10 ng/ml) was added to the medium. On Day 2, the media was changed with the StemPro-34 supplemented with SB431542 (6 μM), CHIR99021 (3 μM), bFGF (5 ng/ml), and BMP4 (10 ng/ml). On Day 3, the medium was replaced with StemPro-34 supplemented with VEGF (15 ng/ml) and bFGF (10 ng/ml). On day 6, the medium was changed to StemPro-34 supplemented with bFGF (5 ng/ml), VEGF (15 ng/ml), interleukin (IL)-6 (10 ng/ml), IGF-1 (25 ng/ml), IL-11 (5 ng/ml), SCF (50 ng/ml) and EPO (2IU). The cells were maintained in a 5% CO2, 5% O2 and 95% humidity incubator. All cytokines were purchased from Peprotech.
To isolate the CD34^+ cells, the embryoid bodies (from day 8) were dissociated by 0.05% trypsin, filtered through a 70 μm strainer, CD34^+ cells were isolated by CD34 magnetic bead staining, and subsequently passaged through the LS columns (Miltenyi). A sample from every batch was tested by FACS to validate its purity with the panel. The following antibodies were employed: CD34-PEcy7 (Clone 581; Biolegend), FLK1-PE (CLONE #89106; BD), and 4′,6-diamidino-2-phenylindole (DAPI).
Isolated CD34^+ cells were resuspended in StemPro-34 medium containing Y-27632 (10 μM), TPO (30 ng/ml), IL-3 (10 ng/ml), SCF (50 ng/ml), IL-6 (10 ng/ml), IL-11 (5 ng/ml), IGF-1 (25 ng/ml), VEGF (5 ng/ml), bFGF (5 ng/ml), BMP4 (10 ng/ml), and FLT3 (10 ng/ml) (Ferrel et al 2015). Cells were seeded at a density of 50,000 cells per well onto thin-layer Matrigel-coated 24-well plates. […]

[2] = tested on: donor-derived blood lineages; test: Functional and phenotypic analyses of donor-derived blood lineages in primary transplant; assay type: in vivo, mouse
Description: Pulsating blood vessels like conditions were stimulated in vitro using Flexcell FX-4000 machine. To analyze roles of pharmacological targets in regulating the endothelial-to-HSC transition, mouse embryo-derived AGM or whole mouse embryo were exposed ex vivo with biomechanical stretching, chemicals, or drugs. Next, hematopoietic colony formation assays were performed by incubating mouse AGM-derived cells in StemCell M3434 media for seven days. Serial transplantation of AGM-derived HSCs in lethally irradiated SJL mice were performed. The stem cell frequency upon biomechanical stretching was analyzed using a limiting dilution assay. To characterize properties of AGM-HSC-derived blood cells in primary transplants, percentage chimerism and reconstitution was measured using FACS, globin transcripts were analyzed using quantitative reverse transcriptase-PCR, myeloperoxidase amount was measured using PicoKine ELISA kit, TCR-β rearrangement was analyzed using PCR for TCR-β locus, pre-immune IG detection was analyzed using Thermo-Fisher Mouse Ig Isotyping kit, and delayed-type hypersensitivity was analyzed by injecting sheep RBC (Rockland Immunochemicals) in the footpad of pre-sensitized mice.
FACS was used to sort erythroid precursors (Cd45.2^+, Ter119^+, Cd71^+) from the unlysed bone marrow isolated from AGM-transplanted mice. Total RNA was isolated using the RNAeasy Minikit (QIAGEN) and cDNA synthesis performed using Superscript III (Invitrogen). Quantitative real-time PCR was performed using SYBR Green (QuantaBio) on an MX3000P machine with the indicated primers (Sankaran et al., 2009). We normalized the expression to that of glyceraldehyde-3-phosphate-dehydrogenase (Gapdh) (Ochida et al., 2010).
Neutrophils (Cd45.2^+, Gr1^+, Mac1^+) were FACS sorted from the isolated bone marrow of 16 week-primary transplanted mice and cultured in IMDM with 10% FBS overnight (500,000 cells/mL) in 24-well plates. Supernatant was collected and the MPO concentration measured using the Mouse MPO/Myeloperoxidase PicoKine™ ELISA Kit (Boster). The MPO concentration was also measured in blood serum.
T cells (Cd45.2^+, Cd3^+) and myeloid cells (Cd45.2^+, Mac1^+) were FACS sorted from the splenocytes of 16 week-primary transplanted mice. Next, genomic DNA was extracted, and PCR performed for DH (β2.1-JH (32.7 rearrangements within TCR-β locus. Our samples were denatured (94° C., 1 min), annealed (63° C., 2 mins) and extended (72° C., 2 mins) for 35 cycles. Primer sequences are as follows:
Transplant mice were sensitized with sheep red blood cells (sRBC, 10^9 cells/mL, 50 μL per site, Rockland Immunochemicals) through subcutaneous (lower back) and intradermal injections (right footpad). […] After 48 hours of the challenge, the footpad thickness was measured with a micro-caliper. […]

## Clc1cccc(Cl)c1CSc1nnc(-c2cnccn2)s1 [Yoda1, 2-[5-[[(2,6-Dichlorophenyl)methyl]thio]-1,3,4-thiadiazol-2-yl]-pyrazine]
[1]; FIG. 7C
  improvement in the number of HSCs produced from hPSCs: 2 Fold
[1]; day 8+7 of hematopoietic differentiation
  formation of CD34+CD90+ HSCs: enhances the formation of HSCs from hPSC
[1]; embryoid bodies, day 8, control and PIEZO1-/- PSCs
  formation of hCD43negCD235negCD144+CD34+ HECs: enhances the formation of hCD43^negCD235^negCD144^+CD34^+ HE cells in control but not in PIEZO1^−/− PSCs; also recorded: enhances the formation of hCD43^negCD235^negCD144^+CD34^+ HECs in control but not in PIEZO1^−/− PSCs
[2]; bone marrow Cd71+Ter119+ sorted cells, primary transplant
  expression of adult and embryonic hemoglobin types in donor erythroid cells: reconstitutes to red cells containing adult hemoglobin
[2]; bone marrow Gr1+Mac1+ sorted cells, overnight culture, ELISA
  myeloperoxidase (MPO) of donor neutrophils: reconstitute to functional myeloid cells displaying sufficient MPO levels
[2]; primary transplant mice, footpad
  delayed-type hypersensitivity: possess T-cell mediated immune response
[2]; spleen-sorted Cd3+ T cells
  TCRβ locus rearrangement of donor T cells: display T-cell receptor β (TCR β) rearrangement
